± gives the standard deviation of the averaged measurements.
What was measured:
Assay in all cases: level (log10 ratio to DMSO vehicle control); higher = higher biomarker level / cell amount than vehicle control
[1] = compound: C=CC(=O)OCCC(F)(F)C(F)(F)C(F)(F)C(F)(F)C(F)(F)C(F)(F)C(F)(F)C(F)(F)F [8:2 Fluorotelomer acrylate]; details: in DMSO
Description: (§1)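 BioMAP Diversity Plus panel of 12 human primary cell co-culture systems (3C, 4H, LPS, SAg, BT, BF4T, BE3C, CASM3C, HDF3CGF, KF3CT, MyoF, Mphg). Compounds were added 1 h before stimulation and left for 24 h (MyoF 48 h; BT 72 h for soluble read-outs or 6 d for IgG). Biomarkers were read by ELISA, cytotoxicity by SRB, PBMC viability and proliferation by Alamar Blue. Each well value was divided by the mean of 8 DMSO control wells on the same plate and log10 transformed; duplicate blinded samples were tested at 4 concentrations.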

[2] = compound: FC(F)(I)C(F)(F)C(F)(F)C(F)(F)C(F)(F)C(F)(F)I [1,6-Diiodoperfluorohexane]; details: 6700 nM; in DMSO
Description: as §1

[3] = compound: O=C(Cl)C(F)(F)C(F)(F)C(F)(F)C(=O)Cl [Hexafluoroglutaryl chloride]; details: in DMSO
Description: as §1

[4] = compound: OCC(F)(F)C(F)(F)C(F)(F)C(F)(F)C(F)(F)C(F)(F)C(F)(F)C(F)(F)C(F)(F)C(F)(F)C(F)(F)F [11:1 Fluorotelomer alcohol]; details: in DMSO
Description: as §1

[5] = compound: OCC(F)(F)C(F)(F)C(F)(F)C(F)(F)C(F)(F)C(F)(F)C(F)(F)C(F)(F)CO [1H,1H,10H,10H-Perfluorodecane-1,10-diol]; details: in DMSO
Description: as §1

[6] = compound: OCCC(F)(F)C(F)(F)C(F)(F)C(F)(F)C(F)(F)C(F)(F)C(F)(F)C(F)(F)F [8:2 Fluorotelomer alcohol]; details: 6700 nM; in DMSO
Description: as §1

[7] = compound: OCCCC(F)(F)C(F)(F)C(F)(F)C(F)(F)C(F)(F)C(F)(F)C(F)(F)C(F)(F)F [3-(Perfluorooctyl)propanol]; details: 6700 nM; in DMSO
Description: as §1

[8] = compound: OCCCCC(F)(F)C(F)(F)C(F)(F)C(F)(F)F [4:4 Fluorotelomer alcohol]; details: in DMSO
Description: as §1

Row | Test System | level (log10) ([1]; 6700 nM) | level (log10) ([1]; 20000 nM) | level (log10) ([1]; 60000 nM) | level (log10) [2] | level (log10) ([3]; 6700 nM) | level (log10) ([3]; 20000 nM) | level (log10) ([3]; 60000 nM) | level (log10) ([4]; 1100 nM) | level (log10) ([4]; 3300 nM) | level (log10) ([4]; 10000 nM) | level (log10) ([5]; 6700 nM) | level (log10) ([5]; 20000 nM) | level (log10) ([5]; 60000 nM) | level (log10) [6] | level (log10) [7] | level (log10) ([8]; 6700 nM) | level (log10) ([8]; 20000 nM) | level (log10) ([8]; 60000 nM)
1 | BE3C:EGFR | -0.0155 ± 0.0021 | -0.015 ± 0.013 | 0.003 ± 0.025 | -0.015 | 0.009 ± 0.0099 | 0.0015 ± 0.0021 | -0.0345 ± 0.0092 | -0.022 ± 0.011 | -0.003 ± 0.018 | -0.019 ± 0.0099 | -0.031 ± 0.0085 | -0.042 | -0.102 | -0.019 ± 0.0014 | -0.018 ± 0.0071 | 0.025 ± 0.0085 | 0.022 ± 0.038 | 0.02 ± 0.065
2 | 3C:CD87/uPAR | 0.007 ± 0.027 | -0.0065 ± 0.025 | -0.0025 ± 0.036 | -0.022 | -0.009 ± 0.0071 | 0.0225 ± 0.022 | 0.003 ± 0.041 | -0.024 ± 0.023 | -0.013 ± 0.024 | -0.003 ± 0.011 | -0.063 ± 0.064 | -0.051 ± 0.075 | -0.165 | 0.008 ± 0.018 | -0.03 ± 0.04 | -0.018 ± 0.057 | -0.0155 ± 0.005 | 0.012 ± 0.0014
3 | SAg:CCL2/MCP-1 | -0.0115 ± 0.00071 | -0.023 ± 0.013 | -0.0085 ± 0.036 | 0.001 | -0.02 ± 0.017 | -0.004 ± 0.041 | 0.017 ± 0.051 | 0.0095 ± 0.0078 | -0.013 ± 0.044 | 0.0225 ± 0.039 | -0.0145 ± 0.0092 | -0.02 ± 0.0042 | -0.008 | 0.0025 ± 0.0035 | -0.0025 ± 0.021 | -0.009 ± 0.018 | -0.002 ± 0.0042 | -0.008 ± 0.027
4 | BE3C:CD54/ICAM-1 | -0.016 | 0 ± 0.0014 | 0.019 ± 0.04 | 0.001 | 0.002 ± 0.0071 | -0.002 ± 0.017 | 0.0075 ± 0.025 | -0.0245 ± 0.00071 | -0.054 ± 0.0099 | -0.025 ± 0.0028 | 0.004 ± 0.0085 | -0.0305 ± 0.0064 | -0.232 | 0.001 ± 0.0099 | 0.023 ± 0.0071 | 0.0085 ± 0.015 | -0.0025 ± 0.023 | -0.0045 ± 0.0064
5 | 3C:CXCL9/MIG | -0.0135 ± 0.011 | -0.005 ± 0.0042 | 0.01 ± 0.018 | -0.002 | -0.0035 ± 0.005 | -0.004 ± 0.0014 | 0.002 ± 0.0085 | -0.001 ± 0.014 | 0.0045 ± 0.0064 | 0.0145 ± 0.016 | -0.0145 ± 0.011 | -0.016 ± 0.0071 | -0.007 | -0.015 ± 0.0071 | -0.0075 ± 0.0092 | 0.0075 ± 0.0035 | -0.01 ± 0.0014 | 0.007 ± 0.0028
6 | SAg:CXCL9/MIG | -0.0065 ± 0.0035 | -0.017 ± 0.0014 | 0.009 ± 0.0099 | -0.008 | 0 ± 0.016 | -0.0005 ± 0.011 | 0.013 ± 0.017 | -0.004 ± 0.03 | -0.0175 ± 0.035 | 0.012 ± 0.03 | -0.022 ± 0.0042 | 0.0005 ± 0.019 | -0.021 | -0.006 ± 0.0014 | -0.0205 ± 0.0078 | 0.0015 ± 0.0021 | -0.006 ± 0.0071 | 0.0045 ± 0.012
7 | SAg:CD40 | -0.0085 ± 0.00071 | -0.0075 ± 0.0021 | -0.01 ± 0.017 | -0.018 | 0.0105 ± 0.042 | 0.0085 ± 0.0021 | -0.0085 ± 0.043 | -0.038 ± 0.024 | -0.068 | -0.0685 ± 0.042 | -0.0395 ± 0.0078 | -0.0625 ± 0.028 | -0.081 | 0 ± 0.0042 | -0.029 ± 0.025 | 0.01 ± 0.016 | 0.014 ± 0.0042 | 0.005 ± 0.0042
8 | BT:sIL-17F | -0.018 ± 0.061 | -0.0565 ± 0.022 | -0.03 ± 0.014 | 0.06 | 0.0195 ± 0.09 | -0.095 ± 0.0071 | -0.0065 ± 0.005 | 0.308 ± 0.0078 | 0.319 ± 0.096 | 0.33 ± 0.077 | -0.123 ± 0.064 | -0.054 ± 0.1 | -0.619 | 0.013 ± 0.065 | -0.101 ± 0.015 | -0.0645 ± 0.0092 | -0.107 ± 0.015 | -0.161 ± 0.15
